The test deals with CD1 mice. In words: Acute hepatotoxicity: intoxication by Jo2 anti-Fas antibody and assaying ALATs. Type of test: in vivo. The settings on record: blood 24 hrs after Jo2, control 2,860 ± 382. An excerpt:
An acute model of hepatic damage may be induced by a single injection of the Jo2 anti-Fas antibody (Ogasawara et al., Nature, August 1993), producing severe hepatic damages and resembling viral, auto-immune or drug-induced hepatitis.
Alanine Aminotransferase (ALAT) also called Serum Glutamic Pyruvic Transaminase (SGPT) is an enzyme present in hepatocytes.
Male adult CD1 mice from the breeder “Elevage Janvier”, (Le Genest-Saint-Isle, France) were used. The animals were identified individually and had free access to water and food.
A stock solution of monoclonal hamster anti-mouse CD95 (Fas) antibody, called Jo2, from Pharmingen (BD Biosciences, ref. 554254 batch 32699) is prepared at a concentration of 1 mg/mL in water. The dilutions used are made in 0.9% sodium chloride in water.
The desired amount of 3,5-seco-4-nor-cholestan-5-one oxime-3-ol is weighed and milled into a fine powder, and then mixed with Cremophore EL (Sigma C5135) and absolute ethanol (Carlo Erba RPE 41571) (5% and 10% of the final volume, respectively). After complete dissolution, 0.9% sodium chloride in water is added extemporaneously (85% of the final volume).
Pretreatment with 3,5-seco-4-nor-cholestan-5-one oxime-3-ol is carried out with dosages of 10 and 30 mg/kg by intraperitoneal administration 1 hr before administering the Jo2 antibody. […]

The results in this text go back to patent US7985774B2, “Use of 3,5-seco-4-nor-cholestane derivatives for obtaining a cytoprotective drug” (Trophos, priority 2006, dated 2011).

Consider `CC(C)CCC[C@@H](C)[C@H]1CC[C@H]2[C@@H]3CC/C(=N\O)[C@](C)(CCCO)[C@H]3CC[C@]12C` [3,5-seco-4-nor-cholestan-5-one oxime-3-ol], for which the “ALAT activity Average +/− SEM” value stood at 511 ± 140 U/L (10 mg/kg i.p. 1 hr before Jo2 125 μg/kg i.p.) and 533 ± 150 U/L (30 mg/kg i.p. 1 hr before Jo2 125 μg/kg i.p.).
